Test results reported in patent publication US20120329815A1, “Famciclovir for the Treatment of Recurrent Herpes Labialis using a One-Day Treatment” (priority 2005, published 2012).

Assays:
[1] = Study 2403: safety and tolerability evaluation; type: in vivo, human; details: high-dose one-day treatment (750 mg b.i.d. or 1,500 mg q.d.), immunocompetent patients
Excerpt: The assessment of safety is based mainly on the frequency of adverse events. Adverse events are summarized by presenting, for each treatment group, the number and percentage of patients having any adverse event, having an adverse event in each body system and having each individual adverse event. Any other information collected (e.g., severity or relatedness to study medication) will be listed as appropriate.
The safety and ITT populations include all randomized patients who are exposed to (take any) study medication. Using the above definitions, the safety and ITT populations comprise the same patients. For compatibility with the standard presentations, all safety summaries are referenced using the Safety population while appropriate efficacy summaries (for secondary parameters involving both vesicular and non-vesicular lesions) are referenced using the ITT population.

[2] = test system: recurrent herpes labialis; details: 500 mg three times a day for five days; immunocompetent adult patients; cited from earlier work
[3] = test system: recurrent herpes labialis; experiment: Study 2403: randomized, double-blind, placebo-controlled trial of patient-initiated one-day therapy, efficacy; type: in vivo, human; details: for Hazard ratio vs placebo, time to healing of all (non-aborted and aborted) lesions / Proportion of patients with aborted lesions / Time to healing of all (non-aborted and aborted) lesions (median): ITT; for Time to healing of all (non-aborted and aborted) lesions (median): aborted lesions assigned time zero
Excerpt: This study design is a parallel-group, double-blind, double-dummy, randomized placebo-controlled trial of patient initiated therapy in adult immunocompetent patients with recurrent herpes labialis.
Adult immunocompetent patients with a history of recurrent herpes labialis and at least three episodes in the previous 12 months are selected. These patients have a history of prodromal symptoms preceding at least 50% of their herpes labialis episodes and a history of vesicular lesions occurring in at least 50% of those episodes.
After screening, a total of 900 eligible patients are randomly assigned to one of three treatment groups and are dispensed study medication. The overall assignment ratio is 1:1:1. Patients are instructed to initiate treatment within one hour of the first prodromal symptom without any clinical signs of a recurrent episode of herpes labialis.
Group 1, famciclovir 1500 mg daily (1500 mg po followed by placebo 12 hours later)
Group 2, famciclovir 1500 mg daily (750 mg po b.i.d.) or
Group 3, matching placebo capsules (po b.i.d.).
The criteria for evaluation include the primary efficacy variable and secondary efficacy variables. The primary efficacy variable is the investigator-assessed time to healing (re-epithelialization) of the non-aborted primary lesion complex, defined as the time from start of treatment until loss of crust (erythema may have been present). Secondary efficacy variables include time to healing of all non-aborted lesions (primary lesion complex and secondary lesions), time to healing of all lesions (non-aborted and aborted; latter assigned a time to healing of zero), and proportion of patients with aborted lesions.
Lesion healing for vesicular lesions is defined as loss of crust, although erythema may still be present. At each visit starting with Visit 2, the investigator makes assessments based on both the investigator examination of the current visit and patient diary entries since the previous visit. If healing is confirmed, the time of healing is defined as the earliest time it was reported and continuously maintained in the diary. This convention applies to the assessment of both the primary lesion complex and all vesicular lesions.
The Kaplan-Meier method is used to estimate the distribution of time to healing for each treatment group and the median time to healing. Estimated survival curves are plotted. The 95% confidence intervals for the median times to healing are constructed based on the first-order Taylor series approximation of their standard errors using the standard errors of the estimated survival functions. The 95% confidence intervals for between-treatment median differences are constructed using standard errors.
The overall distribution of the time to healing will be compared among treatment groups using the proportional hazards model, with treatment and center as the explanatory, variables. The Efron approximate likelihood method will be used for resolution of ties. Confidence intervals for the hazard ratios will be provided.
Variable 1, the primary efficacy variable, is the investigator-assessed time to healing of the primary lesion complex, defined as the time from start of treatment until loss of crust (for vesicular (classical) lesions progressing through the vesicle/ulcer stage only, erythema is allowed).
The primary efficacy variable, investigator-assessed time to healing of the primary lesion complex, is analyzed over the modified ITT population in two approaches: the primary estimation is based on the Kaplan-Meier method, and statistical testing is based on the proportional hazards model.
Secondary efficacy variables include variables 2-7. Variable 2 is the time to healing (lost of crust) of the primary lesion complex (non-vesicular lesions will be assigned a time of zero). Variable 3 is the time to healing (loss of crust) of all vesicular lesions (non-vesicular lesions will be assigned a time of zero). […]

[4] = test system: herpes labialis; details: 2,000 mg twice a day for one day; immunocompetent adult patients; cited from earlier work
[5] = test system: orolabial herpes infection; details: 200 mg or 400 mg five times a day for five days; cited from earlier work
[6] = 750 mg b.i.d. for one day, Modified ITT
[7] = 750 mg b.i.d. for one day, Per Protocol
[8] = 1500 mg q.d. single dose, Modified ITT
[9] = 1500 mg q.d. single dose, Per Protocol

Question: With `CC(=O)OCC(CCn1cnc2cnc(N)nc21)COC(C)=O` [Famciclovir, 9-(4-acetoxy-3-acetoxymethylbut-1-yl)-2-aminopurine] as the molecule, how does the Safety and tolerability [1] read?
Answer: safe, well-tolerated

Question: And the Safety and tolerability ([1]; listed as FCV)?
Answer: well tolerated and as safe as placebo

Question: What about the “Size of lesions as compared to placebo” value [2] of the same molecule?
Answer: reduction of the size of lesions

Question: What about the “Time to healing as compared to placebo” value [2] of the same molecule?
Answer: shorter time to healing

Question: And the “Hazard ratio vs placebo, time to healing of all (non-aborted and aborted) lesions” value ([3]; 750 mg b.i.d. for one day)?
Answer: 1.39

Question: What about the “Proportion of patients with aborted lesions” value ([3]; 750 mg b.i.d. for one day) of the same molecule?
Answer: 29%

Question: And the “Time to healing of all (non-aborted and aborted) lesions (median)” value ([3]; 750 mg b.i.d. for one day)?
Answer: 3.0 days

Question: And the “Hazard ratio vs placebo, time to healing of all non-aborted (primary and secondary) lesions” value [3, 6]?
Answer: 2.06

Question: What about the “Hazard ratio vs placebo, time to healing of primary lesion complex” value (from here on “Hazard ratio … of primary lesion complex”) [3, 6] of the same molecule?
Answer: 2.05

Question: And the “Time to healing of all non-aborted (primary and secondary) lesions (median)” value [3, 6]?
Answer: 4.1 days

Question: What about the “Time to healing of primary lesion complex (median)” value [3, 6] of the same molecule?
Answer: 4.0 days

Question: And the “Hazard ratio … of primary lesion complex” value [3, 7]?
Answer: 2.06

Question: And the “Time to healing of primary lesion complex (median)” value [3, 7]?
Answer: 4.0 days

Question: And the “Hazard ratio vs placebo, time to healing of all (non-aborted and aborted) lesions” value ([3]; 1500 mg q.d. single dose)?
Answer: 1.34

Question: And the “Proportion of patients with aborted lesions” value ([3]; 1500 mg q.d. single dose)?
Answer: 33%

Question: And the “Time to healing of all (non-aborted and aborted) lesions (median)” value ([3]; 1500 mg q.d. single dose)?
Answer: 2.9 days

Question: And the “Hazard ratio vs placebo, time to healing of all non-aborted (primary and secondary) lesions” value [3, 8]?
Answer: 1.71

Question: What about the “Hazard ratio … of primary lesion complex” value [3, 8] of the same molecule?
Answer: 1.64

Question: What about the “Time to healing of all non-aborted (primary and secondary) lesions (median)” value [3, 8] of the same molecule?
Answer: 4.5 days

Question: What about the “Time to healing of primary lesion complex (median)” value [3, 8] of the same molecule?
Answer: 4.4 days

Question: And the “Hazard ratio … of primary lesion complex” value [3, 9]?
Answer: 1.71

Question: And the “Time to healing of primary lesion complex (median)” value [3, 9]?
Answer: 4.4 days

Question: For `CC(C)[C@H](N)C(=O)OCCOCn1cnc2c(=O)[nH]c(N)nc21` [Valacyclovir], which “Median time to healing of lesions as compared to placebo” value [4] is on record?
Answer: reduced by approximately one day

Question: With `Nc1nc2c(ncn2COCCO)c(=O)[nH]1` [acyclovir] as the molecule, how does the “Time to healing of vesicular lesions and pain” value [5] read?
Answer: significant but limited reduction
